Laboratory results from patent US8529949B2, “Pharmaceutical tablets of crystalline type II aripiprazole” (Synthon BV, priority 2005, dated 2013).
Like-named read-outs stand apart in the source and are kept apart here.

Key:
[1] = cited from earlier work
[2] = Hygroscopicity (water uptake) of crystalline aripiprazole forms; format: physicochemical; conditions: small particle population (d90 8-50 microns), unmilled

In the case of O=C1CCc2ccc(OCCCCN3CCN(c4cccc(Cl)c4Cl)CC3)cc2N1 [Anhydrous Form B, 7-[4-[4-(2,3-dichlorophenyl)-1-piperazinyl]butoxy]-3,4-dihydrocarbostyril], the “water uptake (hygroscopicity)” value ([1]; in 24 hours, per WO 03/26659) is given as “less than 0.4%”.

In the case of O=C1CCc2ccc(OCCCCN3CCN(c4cccc(Cl)c4Cl)CC3)cc2N1 [Type I aripiprazole, 7-[4-[4-(2,3-dichlorophenyl)-1-piperazinyl]butoxy]-3,4-dihydrocarbostyril], the hygroscopicity ([1]; as taught by WO 03/26659) is listed as “significantly hygroscopic”.

With O=C1CCc2ccc(OCCCCN3CCN(c4cccc(Cl)c4Cl)CC3)cc2N1 [aripiprazole Type II, 7-[4-[4-(2,3-dichlorophenyl)-1-piperazinyl]butoxy]-3,4-dihydrocarbostyril] the hygroscopicity [2] was “not significantly hygroscopic and/or is non-hygroscopic”.
